According to ChEMBL document CHEMBL1201862, “PubChem BioAssay data set” (2004):
Activity calls are given as the source filed them.

What was measured:
Protein Tat = Protein Tat (Human immunodeficiency virus type 1 group M subtype B (isolate HXB2)(HIV-1), UniProt P04608); format: functional;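 further: tat binding to TAR RNA read out by fluorescence polarization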
[1] = target: T1, Type-1 angiotensin II receptor (Homo sapiens, UniProt P30556); experiment: AT1 receptor antagonists, dose response, selectivity assay for APJ receptor antagonist project, cell-based, uHTS hits (AID 463214); format: functional;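 further: antagonist potency against angiotensin II stimulated AT1 response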
T1 sequence (P30556 whole entry): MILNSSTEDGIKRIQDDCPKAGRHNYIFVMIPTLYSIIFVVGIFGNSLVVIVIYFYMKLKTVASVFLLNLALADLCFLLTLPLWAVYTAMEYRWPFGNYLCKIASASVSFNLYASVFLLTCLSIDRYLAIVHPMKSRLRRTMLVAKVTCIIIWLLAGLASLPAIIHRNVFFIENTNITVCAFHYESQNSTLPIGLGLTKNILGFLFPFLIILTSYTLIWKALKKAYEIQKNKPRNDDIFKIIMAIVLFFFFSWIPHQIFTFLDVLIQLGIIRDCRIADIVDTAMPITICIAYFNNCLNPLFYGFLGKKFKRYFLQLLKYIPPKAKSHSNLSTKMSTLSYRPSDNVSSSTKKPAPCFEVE

Genome polyprotein = Genome polyprotein (dengue virus type 2, UniProt P29990); experiment: Dengue-2 NS5 methyltransferase inhibitors, primary screen, biochemical, confirmation dose response (AID 588689); format: functional
[2] = target: T2, Delta-type opioid receptor (Homo sapiens, UniProt P41143); experiment: HTS Image-Based Screen for Antagonists of the DOR Receptor. [Related pubchem assays (depositor defined):AID1777, AID1785, AID1786, AID2133]; format: functional
[3] = target: T2, Delta-type opioid receptor; experiment: HTS Image-Based Screen for Agonists of the DOR Receptor. [Related pubchem assays (depositor defined):AID1777, AID1786, AID2133]; format: functional
Beta-galactosidase [4] = target: T3, Beta-galactosidase (Escherichia coli, UniProt Q8VNN2); experiment: PubChem AID 485352; format: functional
Vero = Vero cell cytotoxicity, cytotoxicity control for flavivirus capping enzyme inhibitors (AID 588742); format: functional; details: Chlorocebus sabaeus
[5] = target: T4, Kappa-type opioid receptor (Homo sapiens, UniProt P41145); format: functional
Beta Lactamase = Beta Lactamase (Pseudomonas aeruginosa, UniProt Q932Y6); experiment: beta-lactamase reporter inhibitor potency, dose response, artefact control for TLR9-MyD88 binding inhibitor project, BLA reporter cells, FRET fluorescence (AID 588341); format: cell-based;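 further: cell based assay in CHO-K1 cells stably expressing beta-lactamase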
Mu-type opioid receptor = Mu-type opioid receptor (Homo sapiens, UniProt P35372); experiment: HTS Image-Based Screen for Agonists of the MOR Receptor. [Related pubchem assays (depositor defined):AID1777, AID1785, AID1786, AID2133]; format: functional;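 further: imaging of beta-arrestin GFP recruitment into spots after receptor activation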
CHO = experiment: cytotoxicity in TLR9-MyD88 CHO cells, dose response, cytotoxicity control for TLR9-MyD88 binding inhibitor project, cell-based, luminescence (AID 588339); format: functional, hamster; details: Cricetulus griseus;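 further: CHO cells stably coexpressing TLR9 and MyD88 fusions from primary screen; compound exposure lasted 48 hours before viability readout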
[6] = target: T4, Kappa-type opioid receptor; format: functional; remark: listed apart in the source
Paired box protein Pax-8 = Paired box protein Pax-8 (Homo sapiens, UniProt Q06710); experiment: inhibitors of PAX8-driven TPO luciferase reporter, dose response, RMG-I cells, cherry-pick (AID 687027); format: functional, cell-based;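 further: luciferase reporter driven by Pax8 target thyroperoxidase promoter measured by SteadyGlo luminescence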
[7] = target: G-protein coupled receptor 55 (Homo sapiens, UniProt Q9Y2T6); experiment: GPR55 antagonists blocking LPI-driven arrestin recruitment, primary screen, imaging, U2OS, beta-arrestin-GFP, LPI agonist (AID 2013); format: functional;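 further: antagonist potency measured as reduced agonist-driven arrestin aggregation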
Beta-galactosidase [8] = target: T3, Beta-galactosidase; format: functional
[9] = target: Bifunctional protein GlmU (Mycobacterium tuberculosis, UniProt P9WMN3); experiment: Inhibitors of Mycobacterial Glucosamine-1-phosphate acetyl transferase (GlmU). Secondary screen.; design: species or system Mycobacterium tuberculosis H37Rv
[10] = target: RNA-editing ligase 1, mitochondrial (Trypanosoma brucei brucei, UniProt P86926); experiment: TbREL1 ligase inhibitors, dose response, biochemical, fluorescence, Trypanosoma brucei (AID 1117295); format: functional
Chain of RNA-editing ligase 1, mitochondrial (P86926 whole entry): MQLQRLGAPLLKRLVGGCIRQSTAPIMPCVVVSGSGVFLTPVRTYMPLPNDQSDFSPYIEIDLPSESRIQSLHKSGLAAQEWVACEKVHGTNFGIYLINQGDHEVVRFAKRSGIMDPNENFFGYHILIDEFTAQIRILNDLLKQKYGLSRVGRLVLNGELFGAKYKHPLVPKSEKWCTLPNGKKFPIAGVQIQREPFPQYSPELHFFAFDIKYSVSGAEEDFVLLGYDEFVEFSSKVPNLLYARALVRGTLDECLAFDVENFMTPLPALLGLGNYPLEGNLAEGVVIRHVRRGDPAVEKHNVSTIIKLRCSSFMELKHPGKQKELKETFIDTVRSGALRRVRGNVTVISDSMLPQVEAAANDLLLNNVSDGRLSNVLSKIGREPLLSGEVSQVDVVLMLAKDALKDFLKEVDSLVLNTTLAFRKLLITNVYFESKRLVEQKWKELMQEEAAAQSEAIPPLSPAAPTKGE

T3 sequence (Q8VNN2 whole entry): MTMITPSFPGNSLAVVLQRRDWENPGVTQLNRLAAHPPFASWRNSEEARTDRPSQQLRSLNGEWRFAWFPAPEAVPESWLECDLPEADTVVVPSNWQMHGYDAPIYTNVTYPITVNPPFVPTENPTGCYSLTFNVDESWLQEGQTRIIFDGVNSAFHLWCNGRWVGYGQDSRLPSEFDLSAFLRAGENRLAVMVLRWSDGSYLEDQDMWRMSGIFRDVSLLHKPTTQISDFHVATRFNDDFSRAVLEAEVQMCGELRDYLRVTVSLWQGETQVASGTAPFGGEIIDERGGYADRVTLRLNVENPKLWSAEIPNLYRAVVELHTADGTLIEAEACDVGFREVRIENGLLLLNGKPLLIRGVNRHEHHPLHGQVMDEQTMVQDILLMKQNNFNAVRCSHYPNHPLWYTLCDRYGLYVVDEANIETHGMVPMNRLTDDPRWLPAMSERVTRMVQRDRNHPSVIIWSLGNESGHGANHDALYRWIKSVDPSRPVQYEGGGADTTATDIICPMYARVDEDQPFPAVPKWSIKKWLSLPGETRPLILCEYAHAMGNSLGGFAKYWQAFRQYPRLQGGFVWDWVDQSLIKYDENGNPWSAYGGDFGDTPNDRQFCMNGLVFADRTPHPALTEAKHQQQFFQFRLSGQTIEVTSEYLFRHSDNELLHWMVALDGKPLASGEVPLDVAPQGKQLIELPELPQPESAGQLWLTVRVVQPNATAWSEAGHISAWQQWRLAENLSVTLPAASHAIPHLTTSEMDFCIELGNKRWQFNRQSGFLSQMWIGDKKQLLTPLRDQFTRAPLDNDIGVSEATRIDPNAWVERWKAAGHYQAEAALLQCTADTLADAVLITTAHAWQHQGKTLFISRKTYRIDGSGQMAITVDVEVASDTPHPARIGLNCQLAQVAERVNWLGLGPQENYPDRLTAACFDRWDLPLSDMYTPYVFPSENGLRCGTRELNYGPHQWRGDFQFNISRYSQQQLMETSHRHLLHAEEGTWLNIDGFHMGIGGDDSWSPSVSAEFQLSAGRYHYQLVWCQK
T4 sequence (P41145 whole entry): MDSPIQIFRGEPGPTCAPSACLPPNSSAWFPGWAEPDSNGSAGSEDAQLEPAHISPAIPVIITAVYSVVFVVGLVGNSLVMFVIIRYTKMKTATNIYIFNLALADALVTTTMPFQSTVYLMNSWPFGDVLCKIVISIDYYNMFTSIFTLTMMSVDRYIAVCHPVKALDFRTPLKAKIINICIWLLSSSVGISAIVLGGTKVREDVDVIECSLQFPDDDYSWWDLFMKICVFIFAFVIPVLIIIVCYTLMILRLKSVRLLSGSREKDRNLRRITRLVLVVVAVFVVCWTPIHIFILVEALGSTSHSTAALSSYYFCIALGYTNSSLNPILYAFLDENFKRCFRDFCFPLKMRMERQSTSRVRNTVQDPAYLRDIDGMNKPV
T2 sequence (P41143 whole entry): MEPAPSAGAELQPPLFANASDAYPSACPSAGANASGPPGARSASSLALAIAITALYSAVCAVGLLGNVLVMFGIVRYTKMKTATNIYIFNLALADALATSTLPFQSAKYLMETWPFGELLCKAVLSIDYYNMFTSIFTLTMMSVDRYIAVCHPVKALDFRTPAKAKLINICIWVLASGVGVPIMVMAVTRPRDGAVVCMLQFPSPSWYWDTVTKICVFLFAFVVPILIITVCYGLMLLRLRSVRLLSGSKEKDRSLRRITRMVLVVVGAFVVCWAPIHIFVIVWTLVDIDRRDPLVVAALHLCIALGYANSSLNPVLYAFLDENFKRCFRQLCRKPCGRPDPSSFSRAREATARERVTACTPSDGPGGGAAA
Chain of Beta Lactamase (Q932Y6 whole entry): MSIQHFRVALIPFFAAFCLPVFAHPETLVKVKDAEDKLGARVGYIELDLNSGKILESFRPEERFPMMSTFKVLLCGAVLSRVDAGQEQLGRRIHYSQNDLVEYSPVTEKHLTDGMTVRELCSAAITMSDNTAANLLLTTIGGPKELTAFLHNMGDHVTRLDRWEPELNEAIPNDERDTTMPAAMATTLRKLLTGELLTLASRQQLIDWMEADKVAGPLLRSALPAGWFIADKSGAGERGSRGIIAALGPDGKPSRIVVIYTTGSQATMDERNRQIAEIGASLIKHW
Chain of Protein Tat (P04608 whole entry): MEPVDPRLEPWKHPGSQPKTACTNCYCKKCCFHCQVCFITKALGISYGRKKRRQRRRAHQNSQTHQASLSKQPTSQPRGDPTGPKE
Chain of Paired box protein Pax-8 (Q06710 whole entry): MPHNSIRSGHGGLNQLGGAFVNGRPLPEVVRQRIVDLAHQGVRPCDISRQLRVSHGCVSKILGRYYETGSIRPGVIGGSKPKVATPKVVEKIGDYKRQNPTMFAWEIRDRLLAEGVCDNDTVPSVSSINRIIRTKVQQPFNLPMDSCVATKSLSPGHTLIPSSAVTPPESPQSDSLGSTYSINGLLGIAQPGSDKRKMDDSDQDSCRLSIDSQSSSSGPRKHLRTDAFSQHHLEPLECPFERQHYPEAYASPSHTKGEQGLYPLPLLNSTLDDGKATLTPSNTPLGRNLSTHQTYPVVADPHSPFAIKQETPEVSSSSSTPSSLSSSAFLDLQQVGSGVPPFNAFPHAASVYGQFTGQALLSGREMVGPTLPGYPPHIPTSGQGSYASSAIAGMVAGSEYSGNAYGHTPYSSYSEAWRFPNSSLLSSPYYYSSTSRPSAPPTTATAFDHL
Chain of Bifunctional protein GlmU (P9WMN3 whole entry): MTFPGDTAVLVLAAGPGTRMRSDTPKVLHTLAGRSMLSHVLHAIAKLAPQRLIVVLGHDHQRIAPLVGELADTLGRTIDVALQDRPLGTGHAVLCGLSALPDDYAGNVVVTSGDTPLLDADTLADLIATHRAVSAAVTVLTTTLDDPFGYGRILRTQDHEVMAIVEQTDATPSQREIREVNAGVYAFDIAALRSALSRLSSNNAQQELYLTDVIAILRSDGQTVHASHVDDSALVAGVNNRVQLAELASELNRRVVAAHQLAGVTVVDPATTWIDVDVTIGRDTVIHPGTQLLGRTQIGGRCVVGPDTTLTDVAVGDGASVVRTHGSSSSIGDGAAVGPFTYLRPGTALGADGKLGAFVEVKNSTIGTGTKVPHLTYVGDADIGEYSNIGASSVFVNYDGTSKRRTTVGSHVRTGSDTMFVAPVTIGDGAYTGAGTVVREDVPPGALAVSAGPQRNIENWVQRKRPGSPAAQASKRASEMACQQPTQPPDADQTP
Chain of Genome polyprotein (P29990 2492-3391 limits assumed): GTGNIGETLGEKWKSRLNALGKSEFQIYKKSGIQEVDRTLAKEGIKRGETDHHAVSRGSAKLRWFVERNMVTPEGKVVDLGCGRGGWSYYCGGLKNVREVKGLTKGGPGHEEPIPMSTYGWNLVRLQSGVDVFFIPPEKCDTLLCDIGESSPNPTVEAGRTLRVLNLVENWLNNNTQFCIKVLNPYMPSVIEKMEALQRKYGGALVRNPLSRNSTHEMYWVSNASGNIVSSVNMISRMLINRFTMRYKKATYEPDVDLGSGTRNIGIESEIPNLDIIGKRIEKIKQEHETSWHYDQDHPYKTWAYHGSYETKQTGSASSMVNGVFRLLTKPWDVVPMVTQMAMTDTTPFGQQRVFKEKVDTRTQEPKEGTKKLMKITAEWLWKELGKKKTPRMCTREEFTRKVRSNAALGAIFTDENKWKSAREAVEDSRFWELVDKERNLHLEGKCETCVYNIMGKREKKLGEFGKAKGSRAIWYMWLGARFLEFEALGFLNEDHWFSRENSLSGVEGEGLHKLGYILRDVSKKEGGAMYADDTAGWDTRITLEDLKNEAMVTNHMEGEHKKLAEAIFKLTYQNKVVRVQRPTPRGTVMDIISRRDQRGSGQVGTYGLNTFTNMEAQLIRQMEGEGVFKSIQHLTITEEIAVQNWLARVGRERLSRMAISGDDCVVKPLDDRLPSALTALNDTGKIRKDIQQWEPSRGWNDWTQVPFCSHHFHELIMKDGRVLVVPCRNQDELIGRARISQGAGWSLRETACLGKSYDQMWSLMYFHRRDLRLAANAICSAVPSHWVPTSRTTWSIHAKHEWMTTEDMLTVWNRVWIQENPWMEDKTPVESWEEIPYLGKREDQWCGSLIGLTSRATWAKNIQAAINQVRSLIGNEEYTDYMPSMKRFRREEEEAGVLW
Chain of Mu-type opioid receptor (P35372 whole entry, the tested form may be a part): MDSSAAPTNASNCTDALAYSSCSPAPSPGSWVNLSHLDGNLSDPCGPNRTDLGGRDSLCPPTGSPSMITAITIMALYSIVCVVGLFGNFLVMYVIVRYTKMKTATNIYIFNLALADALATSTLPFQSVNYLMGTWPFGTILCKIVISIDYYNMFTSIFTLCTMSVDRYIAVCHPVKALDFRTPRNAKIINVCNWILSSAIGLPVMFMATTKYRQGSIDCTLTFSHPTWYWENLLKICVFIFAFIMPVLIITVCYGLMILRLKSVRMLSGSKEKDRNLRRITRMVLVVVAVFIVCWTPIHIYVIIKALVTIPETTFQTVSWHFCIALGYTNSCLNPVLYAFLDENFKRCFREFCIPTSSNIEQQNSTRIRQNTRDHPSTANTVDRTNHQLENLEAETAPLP

CC1CCCN(C(=O)CN2CCN(C(=O)c3ccco3)CC2)C1 (configuration not stated)
IC50 (Protein Tat): > 100 µM (active)

Cc1c(Nc2cc(Cl)c3nonc3c2[N+](=O)[O-])c(=O)n(-c2ccccc2)n1C
IC50 [1]: 2.33 µM (active)
IC50 (Genome polyprotein): 21.4 µM (active)
IC50 [2]: > 32 µM (inactive)
EC50 [3]: > 32 µM (inactive)
EC50 (Beta-galactosidase [4]): > 40 µM (inactive)
CC50 (Vero): 12.7 µM (active)
IC50 [5]: 30 µM
IC50 (Beta Lactamase): 6 µM (active)
EC50 (Mu-type opioid receptor): > 32 µM (inactive)
IC50 (CHO): 1.53 µM (active)
IC50 [6]: 4.14 µM (active)
AC50 (Paired box protein Pax-8): 8.97 µM (active)
IC50 [7]: 3.48 µM (active)
EC50 (Beta-galactosidase [8]): > 31.5 µM (inactive)
IC50 [9]: 123 µM (active)

C#CCOCCOCCOCCNc1nc(N2CCN(C(=O)[C@H](CCCCN)n3cc([C@@H](N)C(C)CC)nn3)CC2)nc(N2CCN(C(=O)[C@H](CCCCN)n3cc([C@@H](N)C(C)CC)nn3)CC2)n1 (some centres not stated)
IC50 [10]: > 96.6 µM (inactive)
